Measurements reported in US8110543B2, “Anti-invasive and anti-angiogenic compositions” (Angstrom Pharmaceuticals, Inc., priority 1997, dated 2012).

Settings: mouse, in vivo, iv, 37.5 mg/kg
Procedure: Protein binding studies are presently underway.
Pharmacokinetic analysis was carried out by Gilbert Lam, MicroConstants.

Work on “Ac-KPSSPPEE-NH2 [Å6, CH3CO-Lys-Pro-Ser-Ser-Pro-Pro-Glu-Glu-NH2]” yielded a clearance of 33.3 mL/min/kg and a half-life of 12 min.
